# Tests used:
# Tg(flk1:GFP) embryos = assay: lycat morpholino and mRNA injections, cloche phenotype and GFP scoring in transgenic embryos; type: in vivo, zebrafish; settings: for flk1:GFP signals in vessels: 24 hpf; for flk1:GFP signals in vessels / gata1:GFP signal in the blood islands: a345 control, lycat RNA 300 ng/ul; for flk1:GFP signals in vessels / gata1:GFP signal in the blood islands / Wild-type (phenotype), number of embryos / clo (phenotype), number of embryos: d522 0.3 mM; for gata1:GFP signal in the blood islands: gata1:GFP embryos; for Wild-type (phenotype), number of embryos / clo (phenotype), number of embryos: injected into 1- to 2-cell stage Tg(flk1:GFP) embryos, scored at 36 hpf and 48 hpf, a345 0.5 mM, Lycat RNA 0.3 μg/μl
# Procedure: The cloche alleles, clo^m39 and clo^m378 have been previously described (Stainier et al., Development 121:3141, 1995; Stainier et al., Development 123:285, 1996). A new ENU-induced allele, clo^fv087b was also used. Genetic mapping of cloche was carried out using hybrid F1 (Clo^m39×TL, clo^m378×TL, clo^fv087b×WIK). Transgenic lines Tg(flk1:GFP) and Tg(gata1:GFP) (Long et al., Proc. Natl. Acad. Sci. U.S.A. 94:6267, 1997; Cross et al., ArterioScler. Thromb. Vasc. Biol. 23:911, 2003), were crossed with heterozygous clo^fv087b fish to generate transgenic clo^fv087b individuals. Examining cloche phenotypes and the GFP expression of embryos from sibling crossings identified heterozygous clo^fv087b/+ fish with the Tg(flk1:GFP) or Tg(gata1:GFP).
# (§1) Four morpholinos were synthesized: three anti-sense morpholinos targeting the zebrafish lycat ATG site (atg): […] (SEQ ID NO:5); the second splicing donor site (d322): […] (SEQ ID NO:6); the third splicing donor site (d522): […] (SEQ ID NO:7); and a control morpholino (a345): […] (SEQ ID NO:8) (Gene Tools, LLC). Zebrafish lycat and mouse lycat were cloned into the pCS2 vector, and capped mRNA was synthesized using mRNA in vitro transcription kits (Ambion Inc., Austin, Tex.). Morpholinos and mRNA were injected into one- or two-cell stage wild-type, clo^fv087b; Tg(flk1:GFP) or clo^fv087b; Tg(gata1:GFP) embryos. Injected embryos were incubated at 28.5° C. for examination of phenotypes or were fixed for in situ hybridization. The bright-field pictures were taken using a Zeiss M12 dissecting microscope, and the fluorescence pictures were taken with a Zeiss Stemi SVII Apo fluorescence microscope.
# [1] = tested on: scl expression in the ICM; assay: scl RNA in situ hybridization in injected embryos; type: in vivo, zebrafish; settings: d522 0.3 mM, 0.4 mM, 0.5 mM, 20 hpf, RNA in situ analysis
# Description: FIG. 3. Antisense lycat morpholinos mimic the cloche mutant phenotype and lycat mRNA rescues morpholino mediated knockdown.
# as §1
# In situ hybridization and antibody staining were done in the presence of blocking solution (Roche, Basil, Switzerland), in the RNA hybridization solution, and antibody staining solution (Schulte-Merker, Looking at embryos, 2002). […]
Substance,"injected embryos showing a clear cloche phenotype (lack blood cells, vascular endothelium, endocardium) (Tg(flk1:GFP) embryos; 0.3 mM d522, 5 nl, Tg(flk1:GFP) embryos, 36 hpf and 48 hpf, 132 out of 150) [%]",flk1:GFP signals in vessels (Tg(flk1:GFP) embryos),gata1:GFP signal in the blood islands (Tg(flk1:GFP) embryos),"Wild-type (phenotype), number of embryos (Tg(flk1:GFP) embryos)","clo (phenotype), number of embryos (Tg(flk1:GFP) embryos)",scl expression in the ICM [1],scl expression in the ICM ([1]; listed as lycat morpholino)
d522: anti-sense morpholino targeting zebrafish lycat third splicing donor site: CTGAACACACACACTGACCGAAGC (SEQ ID NO:7) (all phosphorodiamidate morpholino (PMO)),88,very little flk1:GFP signals,very little gata1:GFP signal,18,132,decreased scl,reduces expression of Scl in the intermediate cell mass (ICM) in a dose-dependent manner
a345: control morpholino: GCAGCGGGCACTGCTGGTGGAAGT (SEQ ID NO:8) (all phosphorodiamidate morpholino (PMO)) [reference compound],,strong flk1:GFP signals,strong gata1:GFP signal,65,0,,
